In data set [1] the test system is Mus musculus. The experiment in a line: Anti-inflammatory activity in ICR mouse assessed as inhibition of xylene induced ear edema at 0.10 mmol/kg pretreated orally for 30 mins followed by xylene challenge measured after 2 hrs relative to control. The settings on record: po. In kind it is functional.
Data set [2] has as its system Mus musculus. As to the kind of experiment: Toxicity in mouse assessed as tail bleeding time at 0.50 mmol/kg, po administered 90 mins prior to tail transection measured every 30 secs (reference value: 119.3 +/- 7.7 sec). In kind it is organism-based. The settings on record: in vivo.
The test system of data set [3] is Mus musculus. As to the kind of experiment: Toxicity in mouse assessed as tail bleeding time at 0.50 mmol/kg, po administered 60 mins prior to tail transection measured every 30 secs (reference value: 120.4 +/- 7.9 sec). The settings on record: in vivo. In kind it is organism-based.
For data set [4], the system named is Mus musculus. The experiment in a line: Toxicity in mouse assessed as tail bleeding time at 0.50 mmol/kg, po administered 45 mins prior to tail transection measured every 30 secs (reference value: 119.8 +/- 8.4 sec). In kind it is organism-based. The settings on record: in vivo.
Data set [5] concerns Mus musculus. The experiment in a line: Anti-inflammatory activity in xylene induced ICR mouse ear edema model assessed as edema weight at 0.10 mmol/kg, po pretreated 30 mins followed by xylene challenge measured after 2 hrs (reference value: 4.07 +/- 0.51 mg). In kind it is functional.
The test system of data set [6] is Mus musculus. As to the kind of experiment: Toxicity in mouse assessed as tail bleeding time at 0.50 mmol/kg, po administered 30 mins prior to tail transection measured every 30 secs (reference value: 120.5 +/- 7.9 sec). In kind it is organism-based. The settings on record: in vivo.

Consider 9 compounds from ChEMBL document CHEMBL4028817, “Indole-TEMPO conjugates alleviate ischemia-reperfusion injury via attenuation of oxidative stress and preservation of mitochondrial function” (Bioorg Med Chem, 2017).

Molecules are shown by their SMILES.

The inhibition in vivo is the drop in the measured response relative to a control, in per cent.

As for `CC(C)[C@@H](NC(=O)[C@@H]1Cc2c([nH]c3ccccc23)CN1C(=O)[C@@H]1Cc2c([nH]c3ccccc23)CN1)C(=O)NCc1cn(C2CC(C)(C)N([O])C(C)(C)C2)nn1`, in data set [1], the inhibition in vivo at 100 µmol/kg stood at 36.6%. In addition, the Time in data set [2] is recorded as 118.7 s; in data set [3], 120.4 s; in data set [4], 119.3 s; in data set [6], 116.4 s. In addition, in data set [5], the Activity was 2.58 mg.

In the case of `CC1(C)CC(n2cc(CNC(=O)[C@@H](CCC(N)=O)NC(=O)[C@@H]3Cc4c([nH]c5ccccc45)CN3C(=O)[C@@H]3Cc4c([nH]c5ccccc45)CN3)nn2)CC(C)(C)N1[O]`, the inhibition in vivo at 100 µmol/kg in data set [1] worked out at 47.7%. The Time in data set [2] was found to be 119.3 s; in data set [3] it was 120.6 s; in data set [4], 119.6 s; in data set [6] it was 117.4 s. In addition, the Activity in data set [5] was 2.13 mg.

With `CC[C@@H](C)[C@@H](NC(=O)[C@@H]1Cc2c([nH]c3ccccc23)CN1C(=O)[C@@H]1Cc2c([nH]c3ccccc23)CN1)C(=O)NCc1cn(C2CC(C)(C)N([O])C(C)(C)C2)nn1`, in data set [1], the inhibition in vivo at 100 µmol/kg is 44.7%. Moreover, the Time was 121.7 s in data set [2], 116.1 s in data set [3], 117.5 s in data set [4] and 119.7 s in data set [6]. Besides, the Activity in data set [5] was 2.25 mg.

Consider `CC1(C)CC(n2cc(CNC(=O)[C@@H](Cc3ccccc3)NC(=O)[C@@H]3Cc4c([nH]c5ccccc45)CN3C(=O)[C@@H]3Cc4c([nH]c5ccccc45)CN3)nn2)CC(C)(C)N1[O]`, for which the inhibition in vivo at 100 µmol/kg in data set [1] stood at 45.9%. Further, the Time in data set [2] worked out at 119 s; in data set [3], 117.6 s; in data set [4], 119.1 s; in data set [6], 119.4 s. Further, in data set [5], the Activity is given as 2.2 mg.

Consider `CC1(C)CC(n2cc(CNC(=O)[C@@H](CO)NC(=O)[C@@H]3Cc4c([nH]c5ccccc45)CN3C(=O)[C@@H]3Cc4c([nH]c5ccccc45)CN3)nn2)CC(C)(C)N1[O]`, for which, in data set [1], the inhibition in vivo at 100 µmol/kg was 40.5%. Moreover, the Time was 118.6 s in data set [2], 122.5 s in data set [3], 119.7 s in data set [4] and 121.1 s in data set [6]. The Activity in data set [5] turned out to be 2.42 mg.

For the compound `CC1(C)CC(n2cc(CNC(=O)CNC(=O)[C@@H]3Cc4c([nH]c5ccccc45)CN3C(=O)[C@@H]3Cc4c([nH]c5ccccc45)CN3)nn2)CC(C)(C)N1[O]`, the inhibition in vivo at 100 µmol/kg in data set [1] turned out to be 34.7%. The Time in data set [2] came out at 115.8 s; in data set [3], 116.4 s; in data set [4] it was 114.5 s; in data set [6], 117.7 s. For the same compound, in data set [5], the Activity was 2.65 mg.

Take `C[C@@H](O)[C@@H](NC(=O)[C@@H]1Cc2c([nH]c3ccccc23)CN1C(=O)[C@@H]1Cc2c([nH]c3ccccc23)CN1)C(=O)NCc1cn(C2CC(C)(C)N([O])C(C)(C)C2)nn1`: in data set [1], the inhibition in vivo at 100 µmol/kg worked out at 47.2%. Further, the Time in data set [2] stood at 117.4 s; in data set [3], 118.5 s; in data set [4], 117.3 s; in data set [6] it was 116.9 s. Besides, in data set [5], the Activity came out at 2.15 mg.

`C[C@@H](NC(=O)[C@@H]1Cc2c([nH]c3ccccc23)CN1C(=O)[C@@H]1Cc2c([nH]c3ccccc23)CN1)C(=O)NCc1cn(C2CC(C)(C)N([O])C(C)(C)C2)nn1`: in data set [1], the inhibition in vivo at 100 µmol/kg is 32.9%. Further, the Time in data set [2] was found to be 119.8 s; in data set [3], 117.7 s; in data set [4], 115.3 s; in data set [6], 119.6 s. Also, the Activity in data set [5] is 2.73 mg.

Turning to `CC(C)C[C@@H](NC(=O)[C@@H]1Cc2c([nH]c3ccccc23)CN1C(=O)[C@@H]1Cc2c([nH]c3ccccc23)CN1)C(=O)NCc1cn(C2CC(C)(C)N([O])C(C)(C)C2)nn1`, the inhibition in vivo at 100 µmol/kg in data set [1] came out at 47%. The Time turned out to be 119.1 s in data set [2], 119.8 s in data set [3], 120.7 s in data set [4] and 121 s in data set [6]. In data set [5], the Activity is given as 2.16 mg.
